A short description of series [1]: Toxicity in mouse assessed as overt effects. The series is classed as organism-based. Particulars: in vivo.
Series [2] has as its system Rattus norvegicus. The series can be described thus: Antiinflammatory activity in Long Evans rat assessed as reduction of carrageenan-induced pedal edema at 50 mg/kg, po administered 1 hr prior to carrageenan challenge measured after 3 hrs relative to control. The series is classed as functional. The arrangement: scale not given: the % may be the effect or the level left. For orientation: In the carrageenan paw model, swelling and tenderness develop within hours.

The test system of series [3] is Rattus norvegicus. The series can be described thus: Antiinflammatory activity in Long Evans rat assessed as reduction of carrageenan-induced pedal edema at 40 mg/kg, po administered 1 hr prior to carrageenan challenge measured after 3 hrs relative to control. The series is classed as functional. The arrangement: scale not given: the % may be the effect or the level left.

Series [4] has as its system Rattus norvegicus. The series can be described thus: Antiinflammatory activity in Long Evans rat assessed as reduction of carrageenan-induced pedal edema at 15 mg/kg, po administered 1 hr prior to carrageenan challenge measured after 3 hrs relative to control. The arrangement: scale not given: the % may be the effect or the level left. Type of series: functional.
The subject of series [5] is Rattus norvegicus. The series can be described thus: Antiinflammatory activity in Long Evans rat assessed as reduction of carrageenan-induced pedal edema at 25 mg/kg, po administered 1 hr prior to carrageenan challenge measured after 3 hrs relative to control. The series is classed as functional. The arrangement: scale not given: the % may be the effect or the level left.

Series [6] has as its system Rattus norvegicus. Nature of the series: Antiinflammatory activity in Long Evans rat assessed as reduction of carrageenan-induced pedal edema at 20 mg/kg, po administered 1 hr prior to carrageenan challenge measured after 3 hrs relative to control. Type of series: functional. The arrangement: scale not given: the % may be the effect or the level left.
Series [7] relates to Rattus norvegicus. Nature of the series: Antiinflammatory activity in Long Evans rat assessed as reduction of carrageenan-induced pedal edema at 100 mg/kg, po administered 1 hr prior to carrageenan challenge measured after 3 hrs relative to control. The series is classed as functional. The arrangement: scale not given: the % may be the effect or the level left.

The structures appear in SMILES notation.

Regarding `N#Cc1cc(C#N)c(F)cc1F`, the LD50 in series [1] came out at 56 mg/kg. The Activity in the series on Rattus norvegicus [2] stood at 59%.

Consider `CC(C)CCC(=O)Oc1c(Cl)c(Cl)c(C#N)c(Cl)c1C#N`, for which the LD50 in series [1] was 56 mg/kg. For the same compound, the Activity with Rattus norvegicus [2] is recorded as 0%.

On to `N#Cc1c(Cl)c(C#N)c(Nc2cccc(Cl)c2)c(C#N)c1Cl`, for which, in series [1], the LD50 amounted to 178 mg/kg. Further, in the series on Rattus norvegicus [3], the Activity came out at 0%.

For `N#Cc1c(Cl)c(C#N)c(Nc2ccccc2O)c(C#N)c1Cl`, the Activity in the series with Rattus norvegicus [4] came to 17%. Further, the LD50 in series [1] came to 24 mg/kg.

For `Cc1c(Cl)cccc1Nc1c(C#N)c(Cl)c(C#N)c(Cl)c1C#N`, the LD50 in series [1] came out at 42 mg/kg. The Activity in the series on Rattus norvegicus [5] came out at 8%.

As for `N#Cc1c(Cl)c(C#N)c(Nc2cccc(F)c2)c(C#N)c1Cl`, the LD50 in series [1] was 56 mg/kg. Also, in the series on Rattus norvegicus [3], the Activity worked out at 0%.

Regarding `N#Cc1c(Cl)c(C#N)c(Nc2ccc(F)cc2F)c(C#N)c1Cl`, the LD50 in series [1] was determined as 56 mg/kg. In addition, the Activity with Rattus norvegicus [3] worked out at 12%.

As to `Cc1cccc(Nc2c(C#N)c(Cl)c(C#N)c(Cl)c2C#N)c1C`, the LD50 in series [1] was 75 mg/kg. Further, in the series on Rattus norvegicus [2], the Activity is 22%.

In the case of `Cc1ccc(Nc2c(C#N)c(Cl)c(C#N)c(Cl)c2C#N)c(C)c1`, the 50% lethal dose (LD50) in series [1] amounted to 56 mg/kg. Further, in the series with Rattus norvegicus [3], the Activity is on record as 13%.

With `N#Cc1c(Cl)c(C#N)c(Cl)c(C#N)c1Cl`, in series [1], the LD50 amounted to 24 mg/kg. For the same compound, in the series on Rattus norvegicus [6], the Activity is recorded as 0%.

Regarding `Cc1c(C#N)c(C)c(C#N)c(C)c1C#N`, the LD50 in series [1] stood at 40 mg/kg. In the series with Rattus norvegicus [2], the Activity worked out at 57%.

For the compound `N#CCCS(=O)(=O)c1c(Cl)c(Cl)c(C#N)c(Cl)c1Cl`, in series [1], the median lethal dose (LD50) came to 56 mg/kg. The Activity in the series on Rattus norvegicus [3] turned out to be 5%.

Take `CNc1c(F)c(C#N)c(F)c(F)c1C#N`: the LD50 in series [1] came out at 56 mg/kg. The Activity in the series with Rattus norvegicus [3] was 17%.

Regarding `N#Cc1c(F)c(F)c(C#N)c(F)c1F`, in series [1], the LD50 is 56 mg/kg. For the same compound, the Activity with Rattus norvegicus [2] is 54%.

Regarding `N#Cc1c(F)c(F)c(C#N)c(Cl)c1F`, the LD50 in series [1] turned out to be 40 mg/kg. In addition, the Activity with Rattus norvegicus [3] turned out to be 86%.

On to `CCCCC1C(=O)N(c2ccccc2)N(c2ccccc2)C1=O` [PHENYLBUTAZONE], for which the LD50 in series [1] is over 300 mg/kg. Further, the Activity in the series on Rattus norvegicus [7] came to 43.8%.

What is called LD50 is the dose expected to kill half of the subjects tested.

These data come from ChEMBL document CHEMBL3244157, “Synthesis and antiinflammatory evaluation of substituted isophthalonitriles, trimesonitriles, benzonitriles, and terephthalonitriles” (J Med Chem, 1978).
